# Source: patent publication EP1447414B1, “Antagonist peptides of carcinoembryonic antigen (CEA)” (THE GOVERNMENT OF THE UNITED STATES OF AMERICA, as …, priority 1997, dated 2007)
# No end group written: not given here.
# System: CEA CTL T-Vac8
# Test: CTL cytotoxicity screening of the CAP1 analog panel, 111In release from peptide-incubated C1R-A2 cells
# Format: cell-based, human
# Settings: peptide at 1, 0.1 and 0.01 µg/ml, E:T=1.45:1, isotope release after 4 hours
row,Compound,activation of T-Vac8 cytotoxicity (lysis of peptide-incubated targets)
1,YLSGFNLNL [CAP1-5F],"provided stimulation, albeit at reduced levels compared to CAP1 itself"
2,YLSGSNLNL [CAP1-5S],"provided stimulation, albeit at reduced levels compared to CAP1 itself"
3,YLSGACLNL [CAP1-6C],activated T-Vac8 cytotoxicity and seemed to be equal to or better than CAP1
4,CC(C)C[C@H](NC(=O)[C@H](CC(N)=O)NC(=O)[C@H](CC(C)C)NC(=O)[C@H](CC(=O)O)NC(=O)[C@H](C)NC(=O)CNC(=O)[C@H](CO)NC(=O)[C@H](CC(C)C)NC(=O)[C@@H](N)Cc1ccc(O)cc1)C(=O)O [CAP1-6D],activated T-Vac8 cytotoxicity and seemed to be equal to or better than CAP1
5,CC[C@H](C)[C@H](NC(=O)[C@H](CC(N)=O)NC(=O)[C@H](C)NC(=O)CNC(=O)[C@H](CO)NC(=O)[C@H](CC(C)C)NC(=O)[C@@H](N)Cc1ccc(O)cc1)C(=O)N[C@@H](CC(N)=O)C(=O)N[C@@H](CC(C)C)C(=O)O [CAP1-7I],appeared to be active
6,YLSGINLNL [CAP1-5I],"provided stimulation, albeit at reduced levels compared to CAP1 itself"
